pIC50: −log10 of the molar value. “And” between values parts separate entries of the source, which are not always exact repeats. Identical values can stand only once.
Key:
[1] = target: integrin αvβ6 (Homo sapiens, UniProt P06756+P18564); assay: Fluorescence polarization assay for αvβ6 binding (competition with fluorescein-labeled peptide GRGDLGRL); details: fluorescence polarization assay of Example 12; 10 nM integrin αvβ6, 3 nM labeled peptide; read-out: avb6. (IC50)
Description: Fluorescence Polarization (FP) assays were used to measure compound activity through binding competition with the fluorescein-labeled peptide GRGDLGRL. In the assay, 10 nM of integrin αvβ6 was incubated with the test compound in 2 mM manganese chloride, 0.1 mM calcium chloride, 20 mM HEPES buffer at pH 7.3, 150 mM sodium chloride, 0.01% Triton X-100, 2% DMSO, and 3 nM of the fluorescein-labeled peptide. The assays were run in 384-well plates. For both assay versions, the integrin protein was pre-incubated with the test compounds for 15 minutes at 22° C. before the fluorescein-labeled peptide was added. After the fluorescein-labeled peptide was added, the assay was incubated at 22° C. for 1 hour and fluorescence polarization was measured. IC50 values were determined by nonlinear regression, 4-parameter curve fitting (FIG. 1).

[2] = MDCK in vitro permeability assay, wild type MDCK cells with no inhibitor (A→B); type: in vitro ADME, Canine; details: dog, no Pgp inhibitor, apical to basolateral
Description: (§1) Compounds were tested for permeability in an MDCK permeability assay. This assay measures the ability of compounds to cross a layer of Madin-Darby Canine Kidney (MDCK) cells from the apical to basolateral side (A→B). This measurement is predictive of the ability of compounds to be absorbed in the gut following oral dosing, an essential characteristic of an orally administered small molecule integrin inhibitor drug.
(§2) The assay is run in two formats. One uses wild type MDCK cells with no inhibitor. This method works well in determining the passive permeability of compounds with low efflux by P-glyocprotein (Pgp), and was used to assess permeability of a Reference Compound having the chemical formula shown below.
(§3) Cell Culture and Maintenance: • Cell stock cultures (MDCK or MDCK MDR1) are maintained in MEM+10% FBS+1% NEAA, grown in 75 cm^2 tissue culture treated flasks and split (passed) 2 times weekly to maintain desired confluence. • For maintenance passage: trypsinized cells are routinely distributed into new flasks at a standard passage ratio of 1:20.
(§4) Seeding assay plates: MDCK assay plates are seeded with MDCK or MDCK MCR1 cells 3-4 days prior to running the assay. 24-well plates are seeded at a cell density of 0.88×10^5/well in a 400 μL apical chamber volume (2.2×10^5/mL) with a […] volume of growth medium to the 24-well basal chamber. […]

[3] = system: Madin-Darby Canine Kidney (MDCK) cells; assay: as above; type: in vitro ADME; details: no Pgp inhibitor, apical to basolateral
Description: as §1, §2, §3, §4

integrin αvβ6, sequence (P06756 31-992 limits assumed): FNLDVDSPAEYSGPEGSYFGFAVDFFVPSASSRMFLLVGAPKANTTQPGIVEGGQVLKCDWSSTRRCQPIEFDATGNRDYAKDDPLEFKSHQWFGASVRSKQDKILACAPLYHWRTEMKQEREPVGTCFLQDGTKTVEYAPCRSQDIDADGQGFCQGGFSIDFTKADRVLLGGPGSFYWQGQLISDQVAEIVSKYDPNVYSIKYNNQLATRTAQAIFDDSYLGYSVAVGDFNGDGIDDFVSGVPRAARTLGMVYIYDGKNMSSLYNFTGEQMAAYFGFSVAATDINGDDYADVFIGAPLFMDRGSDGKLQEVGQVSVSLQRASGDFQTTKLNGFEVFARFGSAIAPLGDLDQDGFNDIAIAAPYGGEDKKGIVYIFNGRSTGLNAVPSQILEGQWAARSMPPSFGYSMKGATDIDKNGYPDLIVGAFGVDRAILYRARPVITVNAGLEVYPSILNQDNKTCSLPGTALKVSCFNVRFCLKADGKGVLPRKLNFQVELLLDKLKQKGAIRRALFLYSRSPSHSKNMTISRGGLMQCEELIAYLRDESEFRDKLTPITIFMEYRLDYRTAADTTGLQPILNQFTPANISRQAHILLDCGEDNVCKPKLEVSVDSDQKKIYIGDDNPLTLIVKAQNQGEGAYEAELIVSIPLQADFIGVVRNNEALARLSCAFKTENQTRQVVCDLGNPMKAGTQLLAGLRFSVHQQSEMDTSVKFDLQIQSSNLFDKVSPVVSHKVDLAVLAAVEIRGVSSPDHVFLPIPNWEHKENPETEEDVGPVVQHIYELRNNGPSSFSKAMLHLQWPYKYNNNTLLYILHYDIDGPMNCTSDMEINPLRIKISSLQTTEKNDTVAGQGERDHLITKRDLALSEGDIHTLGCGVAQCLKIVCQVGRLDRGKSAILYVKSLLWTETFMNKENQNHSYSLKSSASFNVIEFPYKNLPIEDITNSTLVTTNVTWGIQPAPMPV
integrin αvβ6, sequence (P18564 22-709 limits assumed): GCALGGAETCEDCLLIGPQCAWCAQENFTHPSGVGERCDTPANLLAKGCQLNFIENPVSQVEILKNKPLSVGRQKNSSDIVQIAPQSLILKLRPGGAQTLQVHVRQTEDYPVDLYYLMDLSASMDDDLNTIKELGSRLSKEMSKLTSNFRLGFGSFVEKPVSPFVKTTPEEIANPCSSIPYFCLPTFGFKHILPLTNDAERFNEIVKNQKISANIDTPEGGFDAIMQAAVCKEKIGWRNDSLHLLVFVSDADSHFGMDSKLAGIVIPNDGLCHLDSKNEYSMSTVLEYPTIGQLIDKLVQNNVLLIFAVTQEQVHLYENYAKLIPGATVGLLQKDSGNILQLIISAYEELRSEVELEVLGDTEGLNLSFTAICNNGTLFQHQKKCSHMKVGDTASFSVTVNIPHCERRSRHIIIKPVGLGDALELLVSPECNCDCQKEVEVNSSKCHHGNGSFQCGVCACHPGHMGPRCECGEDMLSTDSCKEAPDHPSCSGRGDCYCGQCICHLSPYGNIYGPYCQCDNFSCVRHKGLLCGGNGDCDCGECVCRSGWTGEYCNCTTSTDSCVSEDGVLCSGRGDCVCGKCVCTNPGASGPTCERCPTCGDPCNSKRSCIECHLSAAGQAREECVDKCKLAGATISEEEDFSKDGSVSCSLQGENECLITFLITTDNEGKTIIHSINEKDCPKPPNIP

Structure (SMILES): O=C(O)CN1CCC(C(=O)N2CCC(c3ccc4c(n3)NCCC4)CC2)CC1 [Reference Compound]
- pIC50 [1]: ~7.02 and 7.02
- Papp A→B at 90 min, 5 μM [2]: < 2.3 nm/s
- MDCK (A−>B) [3]: less than 0.23

Source: patent US20230219949A1, “INHIBITORS OF (ALPHA-V)(BETA-6) INTEGRIN” (priority 2018, published 2023)
